In patent US11564928B1, “Cannabinoid receptor type 2 (CB2) modulators and uses thereof” (Teon Therapeutics, Inc., priority 2020, dated 2023):
Read-outs that look alike come from different tables or passages of the source.

What was measured:
human recombinant CB1R = human recombinant CB1R (Homo sapiens (Human), UniProt P21554); assay: CB1 receptor binding assay ([3H]CP-55,940 displacement, HEK-293 membranes); conditions: membranes of HEK-293 cells with human recombinant CB1R, [3H]CP-55,940, read-out: CB1 IC50
human recombinant CB1R, sequence (P21554 whole entry): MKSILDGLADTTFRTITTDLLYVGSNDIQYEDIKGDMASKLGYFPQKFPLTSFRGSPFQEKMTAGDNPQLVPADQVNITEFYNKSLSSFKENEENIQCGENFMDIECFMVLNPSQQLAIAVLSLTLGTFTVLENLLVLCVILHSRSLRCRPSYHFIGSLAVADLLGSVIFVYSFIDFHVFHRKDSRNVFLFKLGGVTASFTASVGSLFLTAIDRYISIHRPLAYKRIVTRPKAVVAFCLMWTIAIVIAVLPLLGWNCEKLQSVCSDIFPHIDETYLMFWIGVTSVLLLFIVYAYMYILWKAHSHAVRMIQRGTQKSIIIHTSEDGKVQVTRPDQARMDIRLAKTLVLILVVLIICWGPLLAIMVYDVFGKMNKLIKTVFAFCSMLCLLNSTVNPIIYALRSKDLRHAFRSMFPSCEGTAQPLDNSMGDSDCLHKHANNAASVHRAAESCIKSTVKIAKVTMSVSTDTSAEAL
How it was run: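 Displacement of [3H]CP-55,940 was measured on human CB1R- or CB2R-transfected HEK-293 membranes after 120 min at 37 °C, in duplicate, with filtration and scintillation counting. For CB2R, incubation used Tris-HCl 50 mM, MgCl2 5 mM, CaCl2 1 mM, BSA 0.2%, pH 7.4. Ki values were derived from variable-slope IC50 fits using Cheng–Prusoff.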

human CB2 receptor [1] = molecular target: T1, human CB2 receptor (Homo sapiens (Human), UniProt P34972); assay: CB2 receptor binding assay ([3H]CP-55,940 displacement, HEK-293 membranes); conditions: membranes of HEK-293 cells with human recombinant CB2R, [3H]CP-55,940, read-out: CB2 IC50
T1 sequence (P34972 whole entry): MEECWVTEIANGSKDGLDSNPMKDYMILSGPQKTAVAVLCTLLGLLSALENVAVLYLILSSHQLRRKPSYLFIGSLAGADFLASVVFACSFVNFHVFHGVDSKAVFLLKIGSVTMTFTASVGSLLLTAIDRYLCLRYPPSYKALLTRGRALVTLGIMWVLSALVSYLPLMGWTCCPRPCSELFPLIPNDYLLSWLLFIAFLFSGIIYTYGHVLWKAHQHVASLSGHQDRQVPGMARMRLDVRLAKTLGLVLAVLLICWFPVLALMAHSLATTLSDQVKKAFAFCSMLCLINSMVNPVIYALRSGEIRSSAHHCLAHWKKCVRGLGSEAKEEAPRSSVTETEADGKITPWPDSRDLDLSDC

human CB2 receptor [2] = molecular target: T1, human CB2 receptor; assay: CB2 receptor cAMP assay (DiscoverX HitHunter cAMP XS+); format: cell-based
Procedure: cAMP Hunter CHO-K-1 cell lines expressing human CB2 receptor (Eurofins) were expanded from freezer stocks according to standard procedures. Cells were seeded in a total volume of 20 μL into white walled, 384-well microplates and incubated at 37° C. for the appropriate time prior to testing. cAMP modulation in agonist, inverse agonist or antagonist format was determined using the DiscoverX HitHunter cAMP XS+ assay (Eurofins). For agonist determination, cells were incubated with sample in the presence of EC80 forskolin to induce response. Media was aspirated from cells and replaced with 15 μL 2:1 HBSS/10 mM Hepes: cAMP XS+Ab reagent. Intermediate dilution of sample stocks was performed to generate 4× sample in assay buffer containing 4× EC80 forskolin. 5 μL of 4× sample was added to cells and incubated at 37° C. or room temperature for 30 or 60 minutes. Final assay vehicle concentration was 1%. For inverse agonist determination, cells were preincubated with sample in the presence of EC20 forskolin. Media was aspirated from cells and replaced with 15 μL, 2:1 HBSS/10 mM Hepes: cAMP XS+Ab reagent. Intermediate dilution of sample stocks was performed to generate 4× sample in assay buffer containing 4× EC20 forskolin. 5 μL of 4× sample was added to cells and incubated at 37° C. or room temperature for 30 or 60 minutes. Final assay vehicle concentration was 1%. For antagonist determination, cells were pre-incubated with sample followed by agonist challenge at the EC80 concentration. Media was aspirated from cells and replaced with 10 μL 1:1 HBSS/Hepes: cAMP XS+Ab reagent. 5 μL of 4× compound was added to the cells and incubated at 37° C. or room temperature for 30 minutes. 5 μL of 4× EC80 agonist was added to cells and incubated at 37° C. or room temperature for 30 or 60 minutes. EC80 forksolin was included. After appropriate compound incubation, assay signal was generated through incubation with 20 μL cAMP XS+ED/CL lysis cocktail for one hour followed by incubation with 20 μL, cAMP XS+EA reagent for three hours at room temperature. Microplates were read following signal generation with a PerkinElmer Envision instrument for chemiluminescent signal detection. Compound activity was analyzed using CBIS data analysis suite (ChemInnovation, CA). For agonist mode assay, percentage activity is calculated using the following formula: % Activity=100%×(1−(mean RLU of test sample−mean RLU of MAX control)/(mean RLU of vehicle control−mean RLU of MAX control)). For inverse agonist mode assay, percentage activity is calculated using the following formula: % Inverse Agonist Activity=100%×((mean RLU of test sample−mean RLU of EC20 forskolin)/(mean RLU of forskolin positive control−mean RLU of EC20 control)). For antagonist mode assay, percentage inhibition is calculated using the following formula: % Inhibition=100%×(mean RLU of test sample−mean RLU of EC80 control)/(mean RLU of forskolin positive control−mean RLU of EC80 control). Data are analyzed and IC50 is calculated using GraphPad Prism 5 and the model “log(inhibitor) vs. response—Variable slope”.

[3] = CHO-K1, cAMP Hunter CHO-K-1 cells expressing human CB2 receptor, read-out: Max Stimulation %
[4] = cAMP Hunter CHO-K-1 cells expressing human CB2 receptor, read-out: cAMP IC50
[5] = CHO-K1, read-out: Max Stimulation %

Structure (SMILES): CC(NC(=O)c1cc2cc(-c3ccc(OC(F)F)cc3)cnc2n(CCN2CCOCC2)c1=O)c1ccc(F)cc1 (stereo not drawn) [Compound 53, 6-(4-(difluoromethoxy)phenyl)-N-(1-(4-fluorophenyl)ethyl)-1-(2-morpholinoethyl)-2-oxo-1,2-dihydro-1,8-naphthyridine-3-carboxamide]
- IC50 (human recombinant CB1R; class symbols): > 1000 nM
- IC50 (human CB2 receptor [1]; class symbols): < 100 nM
- Emax (human CB2 receptor [2]; [3]): 85%
- IC50 (human CB2 receptor [2]; [4]): 2 nM

Structure (SMILES): CC(NC(=O)c1cc2cc(-c3ccc(OC(F)F)cn3)cnc2n(CCN2CCOCC2)c1=O)c1ccc(F)cc1 (stereo not drawn) [Compound 55, 6-(5-(difluoromethoxy)pyridin-2-yl)-N-(1-(4-fluorophenyl)ethyl)-1-(2-morpholinoethyl)-2-oxo-1,2-dihydro-1,8-naphthyridine-3-carboxamide]
- IC50 (human recombinant CB1R): 2940 nM
- IC50 (human CB2 receptor [1]): 0.6 nM
- Emax (human CB2 receptor [2]; [3]): 84%
- IC50 (human CB2 receptor [2]; [4]): 11 nM

Structure (SMILES): CC1CCC(NC(=O)c2cc3cc(-c4ccc(C#N)cn4)cnc3n(CCN3CCOCC3)c2=O)CC1 (stereo not drawn) [Compound 57, 6-(5-cyanopyridin-2-yl)-N-(4-methylcyclohexyl)-1-(2-morpholinoethyl)-2-oxo-1,2-dihydro-1,8-naphthyridine-3-carboxamide]
- IC50 (human recombinant CB1R; class symbols): > 1000 nM
- IC50 (human CB2 receptor [1]; class symbols): < 100 nM
- IC50 (human CB2 receptor [2]): 8 nM
- Emax (human CB2 receptor [2]; [5]): 63%

Structure (SMILES): N#Cc1ccc(-c2cnc3c(c2)cc(C(=O)NC24CC(C2)C4)c(=O)n3CCN2CCOCC2)nc1 [Compound 59, N-(bicyclo[1.1.1]pentan-1-yl)-6-(5-cyanopyridin-2-yl)-1-(2-morpholinoethyl)-2-oxo-1,2-dihydro-1,8-naphthyridine-3-carboxamide]
- IC50 (human recombinant CB1R): > 10000 nM
- IC50 (human CB2 receptor [1]): 130 nM
- Emax (human CB2 receptor [2]; [5]): 75%
- IC50 (human CB2 receptor [2]; [4]): 119 nM

Structure (SMILES): CC1CCC(NC(=O)c2cc3cc(Br)cnc3n(CCN3CCOCC3)c2=O)CC1 (stereo not drawn) [Compound 61, 6-bromo-N-(4-methylcyclohexyl)-1-(2-morpholinoethyl)-2-oxo-1,2-dihydro-1,8-naphthyridine-3-carboxamide]
- IC50 (human recombinant CB1R; class symbols): > 1000 nM
- IC50 (human CB2 receptor [1]; class symbols): < 100 nM
- IC50 (human CB2 receptor [2]): 13 nM
- Emax (human CB2 receptor [2]; [5]): 83%

Structure (SMILES): CC1CCC(NC(=O)c2cc3cc(-c4ccccn4)cnc3n(CCN3CCOCC3)c2=O)CC1 (stereo not drawn) [Compound 62, N-(4-methylcyclohexyl)-1-(2-morpholinoethyl)-2-oxo-6-(pyridin-2-yl)-1,2-dihydro-1,8-naphthyridine-3-carboxamide]
- IC50 (human recombinant CB1R; class symbols): > 1000 nM
- IC50 (human CB2 receptor [1]; class symbols): < 100 nM
- IC50 (human CB2 receptor [2]): 13 nM
- Emax (human CB2 receptor [2]; [5]): 33%

Structure (SMILES): CC1CCC(NC(=O)c2cc3cc(-c4ncccn4)cnc3n(CCN3CCOCC3)c2=O)CC1 (stereo not drawn) [Compound 63, N-(4-methylcyclohexyl)-1-(2-morpholinoethyl)-2-oxo-6-(pyrimidin-2-yl)-1,2-dihydro-1,8-naphthyridine-3-carboxamide]
- IC50 (human recombinant CB1R; class symbols): > 1000 nM
- IC50 (human CB2 receptor [1]; class symbols): < 100 nM
- IC50 (human CB2 receptor [2]; [4]): > 1000 nM

Structure (SMILES): N#Cc1ccc(-c2cnc3c(c2)cc(C(=O)NC2CC4(CCC4)C2)c(=O)n3Cc2ccc(F)cc2)nc1 [Compound 69, 6-(5-cyanopyridin-2-yl)-1-(4-fluorobenzyl)-2-oxo-N-(spiro[3.3]heptan-2-yl)-1,2-dihydro-1,8-naphthyridine-3-carboxamide]
- IC50 (human recombinant CB1R; class symbols): > 1000 nM
- IC50 (human CB2 receptor [1]; class symbols): < 100 nM
- IC50 (human CB2 receptor [2]): 21 nM
- Emax (human CB2 receptor [2]; [5]): 79%

Structure (SMILES): O=C(NC12CC(C1)C2)c1cc2cc(Br)cnc2n(Cc2ccc(F)cc2)c1=O [Compound 82, N-(bicyclo[1.1.1]pentan-1-yl)-6-bromo-1-(4-fluorobenzyl)-2-oxo-1,2-dihydro-1,8-naphthyridine-3-carboxamide]
- IC50 (human recombinant CB1R; class symbols): > 1000 nM
- IC50 (human CB2 receptor [1]; class symbols): < 100 nM
- IC50 (human CB2 receptor [2]): 1 nM
- Emax (human CB2 receptor [2]; [5]): 86%

Structure (SMILES): O=C(NC12CC(C1)C2)c1cc2cc(C3CC3)cnc2n(Cc2ccc(F)cc2)c1=O [Compound 83, N-(bicyclo[1.1.1]pentan-1-yl)-6-cyclopropyl-1-(4-fluorobenzyl)-2-oxo-1,2-dihydro-1,8-naphthyridine-3-carboxamide]
- IC50 (human recombinant CB1R; class symbols): > 1000 nM
- IC50 (human CB2 receptor [1]; class symbols): < 100 nM
- IC50 (human CB2 receptor [2]): 5 nM
- Emax (human CB2 receptor [2]; [5]): 93%
